Source: US5650398A, “Drug delivery enhancement via modified saponins” (Cambridge Biotech Corporation, priority 1995, dated 1997)

What was measured:
Sprague-Dawley rats = assay: Intranasal delivery of gentamicin, serum gentamicin by fluorescence polarization immunoassay; format: in vivo; conditions: 5 mg/kg gentamicin, 1.32 mM enhancer
Method: Experimental Conditions: Sprague-Dawley rats (male, 205-240 g) were anesthetized by intramuscular injection of 7.5 mg/kg xylazine with 50 mg/kg ketamine. Gentamicin (40 μl) was administered intranasally at time 0. Formulations contained 5 mg/kg gentamicin, with and without 1.32 mM QH-957. Blood was withdrawn from the tail vein at various timepoints. Serum gentamicin levels were measured using a fluorescence polarization immunoassay. The assay was linear from 0.3-10.0 μg/ml, and the limit of detection was 0.3 μg/ml. A value of 0.3 μg/ml was used in plotting the timepoints with serum levels below the limit of detection. Groups of 3 animals were used. Data are presented as ±standard error of the mean.
Experimental Conditions: Sprague-Dawley rats (male, 205-240 g) were anesthetized by intramuscular injection of 7.5 mg/kg xylazine with 50 mg/kg ketamine. Gentamicin (40 μl) was administered intranasally at time 0. […] Serum gentamicin levels were measured using a fluorescence polarization immunoassay. […]
Sprague-Dawley rats (male, 205-240 g) were anesthetized by intramuscular injection of 7.5 mg/kg xylazine with 50 mg/kg ketamine. […] Serum gentamicin levels were measured using a fluorescence polarization immunoassay. […] The area under the serum gentamicin concentration curve (AUC) was calculated using the trapezoidal rule. […]

rabbits = conditions: nasal administration; cited from earlier work
[1] = literature values; cited from earlier work

enhanced intranasal permeation of gentamicin (serum gentamicin levels) (Sprague-Dawley rats) | SMILES | total absorption of β-interferon relative to intravenous administration (rabbits) [%] | concentration needed for drug delivery [1] [mM]
did not | C[C@H](CCC(=O)NCC(=O)[O-])[C@H]1CC[C@H]2[C@@H]3[C@H](O)C[C@@H]4C[C@H](O)CC[C@]4(C)[C@H]3C[C@H](O)[C@]12C.[Na+] [sodium glycocholate] | 2.2 | 20.5
did not | CC1(C)[C@@H](O[C@H]2O[C@H](C(=O)O)[C@@H](O)[C@H](O)[C@H]2O[C@@H]2O[C@H](C(=O)O)[C@@H](O)[C@H](O)[C@H]2O)CC[C@]2(C)[C@H]3C(=O)C=C4[C@@H]5C[C@@](C)(C(=O)O)CC[C@]5(C)CC[C@@]4(C)[C@]3(C)CC[C@@H]12 [glycyrrhizic acid] |  | 23.8
